Results published in patent publication US20250289827A1, “MORPHIC FORMS OF A MUTANT BRAF DEGRADER AND METHODS OF MANUFACTURE THEREOF” (C4 THERAPEUTICS, INC., priority 2022, published 2025).
“And” between values parts separate entries of the source, which are not always exact repeats. Identical values can stand only once. “Also recorded” adds a separate entry of the source.

Key:
BRAF^V600E = BRAF^V600E (Homo sapiens, UniProt P15056, V600E); test: BRAF V600E degradation in A375 cells; type: cell-based; details: 24 hr
BRAF^V600E, sequence (P15056 whole entry V600E): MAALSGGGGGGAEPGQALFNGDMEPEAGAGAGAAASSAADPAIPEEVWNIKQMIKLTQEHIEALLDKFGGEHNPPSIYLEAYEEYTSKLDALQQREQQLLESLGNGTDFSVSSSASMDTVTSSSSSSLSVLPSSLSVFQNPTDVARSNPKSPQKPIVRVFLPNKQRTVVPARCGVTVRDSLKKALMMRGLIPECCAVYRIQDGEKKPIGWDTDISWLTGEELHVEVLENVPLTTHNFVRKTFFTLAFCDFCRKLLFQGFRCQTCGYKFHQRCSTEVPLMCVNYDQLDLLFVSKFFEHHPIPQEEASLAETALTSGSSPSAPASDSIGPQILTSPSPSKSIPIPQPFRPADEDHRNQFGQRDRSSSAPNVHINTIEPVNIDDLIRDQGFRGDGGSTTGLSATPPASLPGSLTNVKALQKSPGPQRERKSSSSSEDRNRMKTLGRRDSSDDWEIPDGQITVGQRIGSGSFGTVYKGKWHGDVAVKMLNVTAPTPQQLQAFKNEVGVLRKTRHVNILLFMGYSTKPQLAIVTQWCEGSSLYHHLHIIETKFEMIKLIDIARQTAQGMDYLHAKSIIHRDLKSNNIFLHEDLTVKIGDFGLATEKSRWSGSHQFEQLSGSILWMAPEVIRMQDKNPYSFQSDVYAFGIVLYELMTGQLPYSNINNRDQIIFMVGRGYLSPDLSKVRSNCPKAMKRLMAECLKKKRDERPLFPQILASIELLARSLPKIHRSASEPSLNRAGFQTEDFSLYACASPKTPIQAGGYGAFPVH

BCS / DCS classification = details: initial studies
Excerpt: Initial studies indicate Compound 1 is a Biopharmaceutics Classification System (BCS) Class II and a Developability Classification System (DCS) Class IIb molecule.

[1] = Bulk stability of Compound 1 Form B (1 week stress); type: physicochemical; details: for Bulk (XRPD) crystallinity / Bulk (XRPD) form / Color / Purity, Bulk (HPLC): Solid state
Protocol: Compound 1 Form B was placed at 25° C./92% RH in an open container, at 40° C./75% RH in an open container and at 60RC in a closed container for 1 week. Samples after the stress were characterized by XRPD and HPLC and inspected for color change.

[2] = as above; type: physicochemical
[3] = Stability study for Compound 1 Form B (storage conditions); type: physicochemical
[4] = Crystallization from hot saturated solutions by slow cooling; type: physicochemical; details: for Result: slow cooling
Protocol: About 50 mg of Compound 1 Form A was dissolved in the minimal amount of selected solvents at 50° C. Obtained solutions were filtered through a 0.45 μm syringe membrane filter. […] Samples without precipitates at 5° C. were further cooled to −20° C. Precipitates were collected by centrifugation filtration through a 0.45 μm nylon membrane filter at 14,000 rpm. Solid parts (wet cakes) were investigated by XRPD.
Obtained solutions were filtered through a 0.45 μm syringe membrane filter. […] Obtained suspensions were cooled to 5° C. at 0.1° C./min and kept at 5° C. for about 12 h. Precipitates were collected by centrifugation filtration through a 0.45 μm nylon membrane filter at 14,000 rpm. Solid parts (wet cakes) were investigated by XRPD.

[5] = Equilibration with solvents at 25° C. for 4 weeks (XRPD); type: physicochemical
Protocol: About 50 mg of Compound 1 free Form A was equilibrated in 0.1-1 mL of solvents at 25° C. for 4 weeks with a stirring bar on a magnetic stirring plate at a rate of 300 rpm. The obtained suspensions were filtered through a 0.45 μm nylon membrane filter by centrifugation at 14,000 rpm. Solid parts (wet cakes) were investigated by XRPD.

[6] = Salt screening by anti-solvent addition; type: physicochemical; details: Choline; MeOH/0.2 mL, anti-solvent MTBE/0.3 mL
[7] = 25° C./92% RH, open container, 1 week
[8] = 40° C./75% RH, open container, 1 week
[9] = 60° C., tight container, 1 week
[10] = Solid state, photo (visible light, 1.2 million lux-hrs)
[11] = 25° C. ± 2° C./60% RH ± 5% RH, 3 M
[12] = 25° C. ± 2° C./60% RH ± 5% RH, 6 M
[13] = 40° C. ± 2° C./75% RH ± 5% RH, 3 M
[14] = 40° C. ± 2° C./75% RH ± 5% RH, 6 M
[15] = Acetone/water (v:v = 86:14) a.w. = 0.6
[16] = Acetonitrile/water (v:v = 96:4) a.w. = 0.6
[17] = DMF/water (v:v = 73:27) a.w. = 0.6
[18] = Methanol/water (v:v = 69:31) a.w. = 0.6
[19] = THF/water (v:v = 82:18) a.w. = 0.9
[20] = THF/water (v:v = 92:8) a.w. = 0.6

## CCN(C)S(=O)(=O)Nc1ccc(F)c(Oc2ccc3ncn([C@H]4COC5(CCN(C(=O)CC6(O)CCN(c7cc8c(cc7F)c(N7CCC(=O)NC7=O)nn8C)CC6)CC5)C4)c(=O)c3c2)c1C#N [Compound 1, (3R)-3-[6-[2-cyano-3-[[ethyl(methyl)sulfamoyl]amino]-6-fluorophenoxy]-4-oxoquinazolin-3-yl]-8-[2-[1-[3-(2,4-dioxo-1,3-diazinan-1-yl)-5-fluoro-1-methylindazol-6-yl]-4-hydroxypiperidin-4-yl]acetyl]-1-oxa-8-azaspiro[4.5]decane]
BRAF^V600E
  BRAF protein degraded: 74%
  DC50: 14 nM
BCS / DCS classification
  Biopharmaceutics Classification System (BCS) class: Class II
  Developability Classification System (DCS) class: Class IIb

## CCN(C)S(=O)(=O)Nc1ccc(F)c(Oc2ccc3ncn([C@H]4COC5(CCN(C(=O)CC6(O)CCN(c7cc8c(cc7F)c(N7CCC(=O)NC7=O)nn8C)CC6)CC5)C4)c(=O)c3c2)c1C#N [Compound 1 Form B]
[1]; [7]
  Bulk (XRPD) crystallinity: No change in crystallinity
  Bulk (XRPD) form: Form B
  Color: No change of color
  Purity, Bulk (HPLC): 99.2%
[1]; [8]
  Bulk (XRPD) crystallinity: No change in crystallinity
  Bulk (XRPD) form: Form B
  Color: No change of color
  Purity, Bulk (HPLC): 99.3%
[1]; [9]
  Bulk (XRPD) crystallinity: No change in crystallinity
  Bulk (XRPD) form: Form B
  Color: No change of color
  Purity, Bulk (HPLC): 99.3%
[1]; photo (visible light, 1.2 million lux-hrs)
  Bulk (XRPD) form: Form B
[1]; one week, 25° C./92% RH open, 40° C./75% RH open, 60° C. tight container
  Bulk stability (purity, crystal form, crystallinity): excellent chemical and physical stability without any changes in purity, crystal form and crystallinity; also recorded: excellent chemical and physical stability without any changes in purity, crystal form and/or crystallinity
[2]; [10]
  Bulk (XRPD) crystallinity: Slight decrease in crystallinity
  Color: No change of color
  Purity, Bulk (HPLC): 96.9%
[2]; photo test, control sample
  Purity, Control (HPLC): 99.4%
[3]; 5 ± 3° C., 6 M
  Appearance: white solid
  Assay by UPLC (% w/w): 97.7% w/w
  Chiral purity by HPLC (% area): 99.9% area
  Purity by UPLC (% area): 99.0% area
  Related Substances, UPLC (% area), Total Impurities: 1.0% area
  Water Content by KF (% w/w): 1.2% w/w
  XRPD: Form B
[3]; 5±3° C., 25° C./60% RH, 40° C./75% RH
  Water content trend: increasing trend
[3]; 6M, 5±3° C., 25° C./60% RH, 40° C./75% RH
  Stability study outcome (appearance, purity, assay, related substance, chiral purity, water content, XRPD): meet the acceptance criteria
[3]; [11]
  Assay by UPLC (% w/w): 97.2% w/w
  Chiral purity by HPLC (% area): 99.9% area
  Purity by UPLC (% area): 98.9 % area
  Related Substances, UPLC (% area), Total Impurities: 1.1% area
  Water Content by KF (% w/w): 0.7% w/w
  XRPD: Form B
[3]; [12]
  Assay by UPLC (% w/w): 97.8% w/w
  Chiral purity by HPLC (% area): 99.9% area
  Purity by UPLC (% area): 99.1 % area
  Related Substances, UPLC (% area), Total Impurities: 0.90% area
  Water Content by KF (% w/w): 0.9% w/w
  XRPD: Form B
[3]; [13]
  Assay by UPLC (% w/w): 92.2% w/w
  Chiral purity by HPLC (% area): 99.9% area
  Purity by UPLC (% area): 92.2% area
  Related Substances, UPLC (% area), Total Impurities: 1.2% area
  Water Content by KF (% w/w): 0.9 % w/w
  XRPD: Form B
[3]; [14]
  Assay by UPLC (% w/w): 92.5% w/w
  Chiral purity by HPLC (% area): 99.9% area
  Purity by UPLC (% area): 92.5% area
  Related Substances, UPLC (% area), Total Impurities: 1.1% area
  Water Content by KF (% w/w): 1.0 % w/w
  XRPD: Form B
[3]; Initial
  Appearance: white solid
  Assay by UPLC (% w/w): 99.4% w/w and 97.3% w/w
  Chiral purity by HPLC (% area): 99.8% area
  Purity by UPLC (% area): 98.9% area and 97.3% area
  Related Substances, UPLC (% area), Total Impurities: 1.1% area
  Water Content by KF (% w/w): 0.4% w/w
  XRPD: Form B

## CCN(C)S(=O)(=O)Nc1ccc(F)c(Oc2ccc3ncn([C@H]4COC5(CCN(C(=O)CC6(O)CCN(c7cc8c(cc7F)c(N7CCC(=O)NC7=O)nn8C)CC6)CC5)C4)c(=O)c3c2)c1C#N [Compound 1 Form A]
[4]; slow cooling with Form B seeds, Acetone
  XRPD: Form B
[4]; Acetone/water (v:v = 1:1)
  Result: Sticky material
[4]; Acetone, placed at −20° C. for 11 days
  Result: for 11 days: clear solution
[4]; Acetonitrile/water (v:v = 1:1), placed at −20° C. for 11 days
  Result: for 11 days: clear solution
[4]; Acetonitrile, placed at −20° C. for 11 days
  Result: for 11 days: clear solution
[4]; DCM
  Result: Sticky material
[4]; Ethanol, placed at −20° C. for 10 days
  Result: for 10 days: few solids
[4]; Ethyl acetate, placed at −20° C. for 11 days
  Result: for 11 days: clear solution
[4]; Methyl ethyl ketone, placed at −20° C. for 11 days
  Result: for 11 days: clear solution
[4]; THF
  Result: Oil material
[4]; THF/water (v:v = 1:1), placed at −20° C. for 11 days
  Result: for 11 days: clear solution
[5]; 1,4-Dioxane/heptane (v:v = 1:1)
  Comments: Sticky material
[5]; 2-MeTHF
  Comments: Medium crystallinity
  XRPD (solid form after equilibration): Form C
[5]; Acetone
  Comments: Medium crystallinity
  XRPD (solid form after equilibration): Form B
[5]; Acetone/water (v:v = 36:64) a.w. = 0.9
  XRPD (solid form after equilibration): Almost amorphous
[5]; [15]
  Comments: Clear solution
  Comments: concentration of clear solution: (about 500 mg/mL)
[5]; Acetonitrile
  Comments: Medium crystallinity
  XRPD (solid form after equilibration): Form B
[5]; Acetonitrile/water (v:v = 42:58) a.w. = 0.9
  Comments: Sticky material
[5]; [16]
  Comments (crystallinity): Medium
  XRPD (solid form after equilibration): Form B
[5]; DCM/heptane (v:v = 1:1)
  Comments: Sticky material
[5]; DCM/methanol (v:v = 1:1)
  Comments: Clear solution
  Comments: concentration of clear solution: (about 500 mg/mL)
[5]; DMF
  Comments: Clear solution
  Comments: concentration of clear solution: (about 500 mg/mL)
[5]; DMF/water (v:v = 30:70) a.w. = 0.9
  XRPD (solid form after equilibration): Almost amorphous
[5]; [17]
  Comments: Clear solution
  Comments: concentration of clear solution: (about 500 mg/mL)
[5]; DMSO/water (v:v = 23:77) a.w. = 0.9
  XRPD (solid form after equilibration): Almost amorphous
[5]; DMSO/water (v:v = 57:43) a.w. = 0.6
  XRPD (solid form after equilibration): Almost amorphous
[5]; Ethanol
  Comments: Low crystallinity
  XRPD (solid form after equilibration): Form A
[5]; Ethyl acetate
  Comments: Medium crystallinity
  XRPD (solid form after equilibration): Form C*
[5]; Isopropanol
  Comments: Low crystallinity
  XRPD (solid form after equilibration): Form A
[5]; Isopropyl acetate
  Comments: Low crystallinity
  XRPD (solid form after equilibration): Form A
[5]; MTBE
  Comments: Low crystallinity
  XRPD (solid form after equilibration): Form A
[5]; Methanol
  Comments: Low crystallinity
  XRPD (solid form after equilibration): Form B
[5]; Methanol/water (v:v = 22:78) a.w. = 0.9
  XRPD (solid form after equilibration): Almost amorphous
[5]; [18]
  Comments: Low crystallinity
  XRPD (solid form after equilibration): Form B
[5]; Methyl ethyl ketone
  Comments: Medium crystallinity
  XRPD (solid form after equilibration): Form B
[5]; THF/heptane (v:v = 1:1)
  Comments: Medium crystallinity
  XRPD (solid form after equilibration): Form B
[5]; [19]
  Comments: Clear solution
  Comments: concentration of clear solution: (about 500 mg/mL)
[5]; [20]
  Comments: Clear solution
  Comments: concentration of clear solution: (about 500 mg/mL)
[5]; Toluene
  Comments: Low crystallinity
  XRPD (solid form after equilibration): Form A
[6]
  Notes: Sticky material
